Experimental data from US20250129021A1, “SMALL MOLECULE PROTEIN SYNTHESIS MODULATORS” (Interdict Bio, Inc., priority 2023, published 2025).

Legend:
Type in all cases: biochemical
Conditions in all cases: HeLa S3 lysate, sfGFP/mCherry ratio, 2 hrs at 30° C.
[1] = test system: ALK; assay: In vitro transcription-translation (IVTT) assay, ALK reporter
Source text: (§1) All reporter constructs have been cloned into the pT7CFE1-CHis plasmid (ThermoFisher #88860) using Gibson assembly procedures (NEB #E2611L). The parental pT7CFE1-CHis plasmid contains an EMCV IRES at the 5′UTR for translation initiation, a multiple-cloning site (MCS) for gene insertion, an optional C-terminal His-epitope tag, and polyA sequence in the 3′UTR to regulate mRNA stability. All reporters are designed to be inserted at the MCS to include a red fluorescent protein (mCherry), P2A self-cleaving peptide which releases the preceding mCherry protein product, and a fusion open reading frame containing a 3×FLAG epitope, a peptide sequence of interest (TEST), and green fluorescent protein (sfGFP).
(§2) Construct Plasmid Preparation: All plasmids are isolated from MACH1 cells (ThermoFisher) grown overnight in ampicillin-containing luria broth, and purified using ZymoPure Express Plasmid Midiprep Kit (Zymo Research). Constructs are sequenced verified and diluted to a working concentration of 110 ng/μL.
(§3) HeLa S3 Lysate Preparation: HeLa S3 cell pellets are acquired from Ipracell/Ipratech (Belgium) and shipped as 4 mL frozen cell pellets on dry ice for storage at −80° C. until use. The procedure for lysate preparation is as follows. Prepare 1× Lysis Buffer, cold and stored on ice:
(§4) Each preparation takes 8 cell pellets (4 ml packed volume each, approximately 1.0×10^9 cells per pellet). Thaw cell pellets from −80° C. on ice for 90 mins. Lay pellets horizontally on top of the ice and rotate every 30 mins to ensure even thawing. Once thawed, add 4 mL of cold lysis buffer to each pellet, and using a serological pipet, gently pipet up and down to break up clumps. Incubate resuspended cells in ice for an additional 30 mins (plunged into ice). During 30 min incubation, rinse and RNase-zap (Ambion) glass dounces (use loose pestle “A”), gently dry and place on ice until needed. Prepare RNase-free Eppendorf tubes for spinning and for batch storage. Add batch labels to 1.5-1.7 mL RNase-free microcentrifuge tubes (labeling scheme below). Each batch will have an extra 1.5-1.7 mL RNase-free microcentrifuge tube for 40 μL of lysate, label the top of this tube (labeling scheme below). After 30 min incubation, transfer all 8 mL of cell pellet to dounce. Cell lysis is complete after douncing 100 times. Aliquot cell lysis into 1.5-1.7 mL temporary-microcentrifuge tubes. Place tubes in centrifuge with “fins” out, and spin at 1,200×g for 5 mins. After the first spin use a 1 mL pipet to resuspend each tube and repeat spin. This acts as an additional lysis step, is more vigorous and increases lysate yield. During second spin get liquid N2 and a fresh conical tube on ice. After spin is complete, transfer supernatant (lysate) from microcentrifuge tubes into the 50 mL conical tube and keep on ice. Repeat steps 10-14 for all other cell pellets until completed. Once all cell lysate has been transferred to the 50 mL conical tube pipet to mix so the solution is homogenous. Transfer 1 mL of lysate into batch-labeled microcentrifuge tubes and flash freeze in liquid nitrogen. Be sure to pipet up and down to mix throughout transfer step. Place all tubes in the […] for long-term storage.
(§5) In vitro transcription-translation assay setup: Each assay includes a master mix containing lysate and shared components, a 96-well plate containing compound titrations for testing, a 96-well DNA plate with reporter constructs to be tested, 96-well skirted PCR plates, and 96-well flat-bottom, black, fluorescent assay plates. […]

[2] = test system: KRAS G12D; assay: In vitro transcription-translation (IVTT) assay, KRAS G12D reporter
Source text: as §1, §2, §3, §4, §5

[3] = test system: MYC; assay: In vitro transcription-translation (IVTT) assay, MYC reporter
How it was run: (§6)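 Reporter: mCherry, P2A, then 3×FLAG-target peptide-sfGFP fusion, IRES-initiated; HeLa S3 lysate IVTT; cpd dilutions 30 μM−0.1 μM half-log in 100% DMSO (dilution-plate conc); DNA added last; 2 h, 30° C; PBS quench.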

[4] = test system: MCL-1; assay: In vitro transcription-translation (IVTT) assay, MCL-1 reporter
How it was run: as §6

[5] = test system: CCND1; assay: In vitro transcription-translation (IVTT) assay, CCND1 reporter
How it was run: as §6

Row | Structure (SMILES) | IC50 [1] | IC50 [2] | IC50 [3] | IC50 [4] | IC50 [5]
1 | COc1ccc(CC2NCC(O)[C@H]2OC(=O)NCCN(Cc2ccccn2)Cc2ccccn2)cc1 (stereo in doubt) [V187537, (2S,3S,4R)-4-hydroxy-2-[(4-methoxyphenyl)methyl]pyrrolidin-3-yl N-{2-[bis(pyridin-2-ylmethyl)amino]ethyl}carbamate; trifluoroacetic acid] | < 10 µM | 20 to 30 µM | < 10 µM |  | 
2 | COc1ccc(C[C@H]2NC[C@H](O)[C@H]2OC(=O)NCC[C@@H]2NC(=O)C3(CCNCC3)NC2=O)cc1 [V187327, (2R,3S,4S)-4-hydroxy-2-[(4-methoxyphenyl)methyl]pyrrolidin-3-yl N-{2-[(3S)-2,5-dioxo-1,4,9-triazaspiro[5.5]undecan-3-yl]ethyl}carbamate; trifluoroacetic acid] | < 10 µM | > 30 µM | > 30 µM |  | 
3 | COc1ccc(CC2NCC(O)C2OC(=O)NC2CC(N)C2)cc1 [V187681, (2R,3S,4S)-4-hydroxy-2-[(4-methoxyphenyl)methyl]pyrrolidin-3-yl N-[(1s,3s)-3-aminocyclobutyl]carbamate] | > 30 µM | > 30 µM | > 30 µM |  | 
4 | COc1ccc(C[C@H]2NC[C@H](O)[C@H]2OC(=O)Nc2cc(C)[nH]n2)cc1 [V187658, (2R,3S,4S)-4-hydroxy-2-[(4-methoxyphenyl)methyl]pyrrolidin-3-yl N-(5-methyl-1H-pyrazol-3-yl)carbamate; trifluoroacetic acid] | > 30 µM | > 30 µM | > 30 µM |  | 
5 | COc1ccc(C[C@H]2NC[C@H](O)[C@H]2OC(=O)NNC(=O)Cc2ccccc2)cc1 [V187741, N′-({[(2R,3S,4S)-4-hydroxy-2-[(4-methoxyphenyl)methyl]pyrrolidin-3-yl]oxy}carbonyl)-2-phenylacetohydrazide; trifluoroacetic acid] | < 10 µM | 10 to 20 µM | < 10 µM |  | 
6 | COc1ccc(C[C@H]2NC[C@H](O)[C@H]2OC(=O)NCCN2CC3(CNC3)C2)cc1 [V187623, (2R,3S,4S)-4-hydroxy-2-[(4-methoxyphenyl)methyl]pyrrolidin-3-yl N-(2-{2,6-diazaspiro [3.3]heptan-2-yl}ethyl)carbamate] | 20 to 30 µM | > 30 µM | > 30 µM |  | 
7 | CCN(CC)CCOCCNC(=O)O[C@@H]1[C@@H](O)CN[C@@H]1Cc1ccc(OC)cc1 [V187625, (2R,3S,4S)-4-hydroxy-2-[(4-methoxyphenyl)methyl]pyrrolidin-3-yl N-{2-[2-(diethylamino)ethoxy]ethyl}carbamate; trifluoroacetic acid] | > 30 µM | > 30 µM | > 30 µM |  | 
8 | COc1ccc(C[C@H]2NC[C@H](O)[C@H]2OC(=O)NCCN2C(=O)CNC2=O)cc1 [V187659, (2R,3S,4S)-4-hydroxy-2-[(4-methoxyphenyl)methyl]pyrrolidin-3-yl N-[2-(2,5-dioxoimidazolidin-1-yl)ethyl]carbamate; trifluoroacetic acid] | < 10 µM | > 30 µM | 20 to 30 µM |  | 
9 | COc1ccc(C[C@H]2NC[C@H](O)[C@H]2OC(=O)Nc2ccccc2)cc1 [V187666, (2R,3S,4S)-4-hydroxy-2-[(4-methoxyphenyl)methyl]pyrrolidin-3-yl N-phenylcarbamate] | > 30 µM | > 30 µM |  |  | 
10 | CCNc1c(NCCNC(=O)O[C@@H]2[C@@H](O)CN[C@@H]2Cc2ccc(OC)cc2)c(=O)c1=O [V187589, (2R,3S,4S)-4-hydroxy-2-[(4-methoxyphenyl)methyl]pyrrolidin-3-yl N-(2-{[2-(ethylamino)-3,4-dioxocyclobut-1-en-1-yl]amino}ethyl)carbamate; trifluoroacetic acid] | > 30 µM | > 30 µM | > 30 µM |  | 
11 | COc1ccc(C[C@H]2NC[C@H](O)[C@H]2OC(=O)NCCN2C[C@@H](O)[C@H](O)C2)cc1 [V187577, (2R,3S,4S)-4-hydroxy-2-[(4-methoxyphenyl)methyl]pyrrolidin-3-yl N-{2-[(3R,4R)-3,4-dihydroxypyrrolidin-1-yl]ethyl}carbamate] | < 10 µM | 10 to 20 µM | > 30 µM |  | 
12 | COc1ccc(C[C@H]2NC[C@H](O)[C@H]2OC(=O)NCCN2CCN(Cc3ccccc3)CC2)cc1 [V187465, (2R,3S,4S)-4-hydroxy-2-[(4-methoxyphenyl)methyl]pyrrolidin-3-yl N-[2-(4-benzylpiperazin-1-yl)ethyl]carbamate] | < 10 µM | 10 to 20 µM | < 10 µM |  | 
13 | CCCCN(CCCC)CCNC(=O)O[C@@H]1[C@@H](O)CN[C@@H]1Cc1ccc(OC)cc1 [V187382, (2R,3S,4S)-4-hydroxy-2-[(4-methoxyphenyl)methyl]pyrrolidin-3-yl N-[2-(dibutylamino)ethyl]carbamate] | > 30 µM | > 30 µM | > 30 µM |  | 
14 | COCCN(CCNC(=O)O[C@@H]1[C@H](O)CN[C@H]1Cc1ccc(OC)cc1)CCOC [V187538, (2S,3S,4R)-4-hydroxy-2-[(4-methoxyphenyl)methyl]pyrrolidin-3-yl N-{2-[bis(2-methoxyethyl)amino]ethyl}carbamate; trifluoroacetic acid] | < 10 µM | > 30 µM | 10 to 20 µM |  | 
15 | COc1ccc(C[C@H]2NC[C@H](O)[C@H]2OC(=O)Nc2nnc(CO)s2)cc1 [V187598, (2R,3S,4S)-4-hydroxy-2-[(4-methoxyphenyl)methyl]pyrrolidin-3-yl N-[5-(hydroxymethyl)-1,3,4-thiadiazol-2-yl]carbamate; trifluoroacetic acid] | < 10 µM | < 10 µM |  |  | 
16 | CCC(=O)NNC(=O)O[C@@H]1[C@@H](O)CN[C@@H]1Cc1ccc(OC)cc1 [V187739, 1-{[(2R,3S,4S)-4-hydroxy-2-[(4-methoxyphenyl)methyl]pyrrolidin-3-yl]oxy}-N′-propanoylformohydrazide; trifluoroacetic acid] | < 10 µM | 10 to 20 µM |  |  | 
17 | COc1ccc(C[C@H]2NC[C@H](O)[C@H]2OC(=O)NCCOCCN(C)C)cc1 [V187383, (2R,3S,4S)-4-hydroxy-2-[(4-methoxyphenyl)methyl]pyrrolidin-3-yl N-{2-[2-(dimethylamino)ethoxy]ethyl}carbamate] | < 10 µM | > 30 µM |  |  | 
18 | COc1ccc(C[C@H]2NC[C@H](O)[C@H]2OC(=O)NC[C@@H]2CCCO2)cc1 [V187521, (2R,3S,4S)-4-hydroxy-2-[(4-methoxyphenyl)methyl]pyrrolidin-3-yl N-[(2S)-oxolan-2-ylmethyl]carbamate; trifluoroacetic acid] |  | 10 to 20 µM | < 10 µM | < 10 µM | < 10 µM
19 | COc1ccc(C[C@H]2NC[C@H](O)[C@H]2OC(=O)NNCc2ccno2)cc1 [V187668, 1-{[(2R,3S,4S)-4-hydroxy-2-[(4-methoxyphenyl)methyl]pyrrolidin-3-yl]oxy}-N′-(1,2-oxazol-5-ylmethyl)formohydrazide; trifluoroacetic acid] | < 10 µM | 10 to 20 µM |  |  | 
20 | COc1ccc(C[C@H]2NC[C@H](O)[C@H]2OC(=O)NCCO)cc1 [V187584, (2R,3S,4S)-4-hydroxy-2-[(4-methoxyphenyl)methyl]pyrrolidin-3-yl N-(2-hydroxyethyl)carbamate] | < 10 µM | 10 to 20 µM |  |  | 
21 | COc1ccc(C[C@H]2NC[C@H](O)[C@H]2OC(=O)NCCN2CCC3(C2)CC(F)(F)C3)cc1 [V187643, (2R,3S,4S)-4-hydroxy-2-[(4-methoxyphenyl)methyl]pyrrolidin-3-yl N-(2-{2,2-difluoro-6-azaspiro[3.4]octan-6-yl}ethyl)carbamate] | 20 to 30 µM | > 30 µM |  |  | 
